Tests used:
Experiment in all cases: Test C preemergence
Format in all cases: in vivo
[1] = test system: Nightshade; conditions: scale 0 to 100, 0 no effect, 100 complete control
[2] = test system: Sunflower; conditions: Rate 125 g/ha; scale 0 to 100, 0 no effect, 100 complete control
[3] = test system: Surinam grass (Brachiaria decumbens); conditions: for Plant response rating, Surinam grass: scale 0 to 100, 0 no effect, 100 complete control; for Plant response rating (0 to 100), Surinam grass: preemergence, visual evaluation after 12 to 14 days
Method in brief: (§1)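 Formulation: non-phytotoxic solvent mix incl. surfactant. Pre: applied right after planting. Post: 1–4-leaf seedlings. Read: visual 0–100, day 12–14, greenhouse.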

[4] = test system: bermudagrass (Cynodon dactylon); conditions: for Plant response rating, Bermudagrass: scale 0 to 100, 0 no effect, 100 complete control; for Plant response rating (0 to 100 where 0 is no effect and 100 is complete control), Bermudagrass: preemergence, visual evaluation after 12 to 14 days
Method in brief: as §1

[5] = test system: cocklebur (Xanthium strumarium); conditions: for Plant response rating, Cocklebur: scale 0 to 100, 0 no effect, 100 complete control; for Plant response rating (0 to 100), Cocklebur: preemergence, visual evaluation after 12 to 14 days
Method in brief: as §1

[6] = test system: common ragweed (Ambrosia elatior); conditions: for Plant response rating, Ragweed, Common: scale 0 to 100, 0 no effect, 100 complete control
Method in brief: as §1

[7] = test system: corn (Zea mays); conditions: for Plant response rating, Corn: scale 0 to 100, 0 no effect, 100 complete control; for Plant response rating (0 to 100), Corn: preemergence, visual evaluation after 12 to 14 days
Method in brief: as §1

[8] = test system: crabgrass (Digitaria sanguinalis); conditions: for Plant response rating, Crabgrass: scale 0 to 100, 0 no effect, 100 complete control; for Plant response rating (0 to 100), Crabgrass: preemergence, visual evaluation after 12 to 14 days
Method in brief: as §1

[9] = test system: giant foxtail (Setaria faberii); conditions: for Plant response rating, Foxtail, Giant: scale 0 to 100, 0 no effect, 100 complete control; for Plant response rating (0 to 100), Foxtail, Giant: preemergence, visual evaluation after 12 to 14 days
Method in brief: as §1

[10] = test system: goosegrass (Eleusine indica); conditions: for Plant response rating, Goosegrass: scale 0 to 100, 0 no effect, 100 complete control; for Plant response rating (0 to 100), Goosegrass: preemergence, visual evaluation after 12 to 14 days
Method in brief: as §1

[11] = test system: johnsongrass (Sorghum halepense); conditions: for Plant response rating, Johnsongrass: scale 0 to 100, 0 no effect, 100 complete control; for Plant response rating (0 to 100), Johnsongrass: preemergence, visual evaluation after 12 to 14 days
Method in brief: as §1

[12] = test system: kochia (Kochia scoparia); conditions: for Plant response rating, Kochia: scale 0 to 100, 0 no effect, 100 complete control; for Plant response rating (0 to 100), Kochia: preemergence, visual evaluation after 12 to 14 days
Method in brief: as §1

[13] = test system: lambsquarters (Chenopodium album); conditions: for Plant response rating, Lambsquarters: scale 0 to 100, 0 no effect, 100 complete control
Method in brief: as §1

[14] = test system: morningglory (Ipomoea hederacea); conditions: for Plant response rating, Morningglory: scale 0 to 100, 0 no effect, 100 complete control
Method in brief: as §1

[15] = test system: pigweed (Amaranthus retroflexus); conditions: for Plant response rating, Pigweed: scale 0 to 100, 0 no effect, 100 complete control
Method in brief: as §1

[16] = test system: soybean (Glycine max); conditions: for Plant response rating, Soybean: scale 0 to 100, 0 no effect, 100 complete control
Method in brief: as §1

[17] = test system: velvetleaf (Abutilon theophrasti); conditions: for Plant response rating, Velvetleaf: scale 0 to 100, 0 no effect, 100 complete control
Method in brief: as §1

[18] = test system: woolly cupgrass (Eriochloa villosa); conditions: for Plant response rating, Cupgrass, Woolly: scale 0 to 100, 0 no effect, 100 complete control; for Plant response rating (0 to 100), Cupgrass, Woolly: preemergence, visual evaluation after 12 to 14 days
Method in brief: as §1

[19] = test system: yellow nutsedge (Cyperus esculentus); conditions: for Plant response rating, Nutsedge: scale 0 to 100, 0 no effect, 100 complete control
Method in brief: as §1

[20] = test system: Nightshade; conditions: Rate 500 g/ha, visual evaluation after 12 to 14 days
[21] = preemergence, Rate 500 g/ha, visual evaluation after 12 to 14 days

Structure (SMILES): CC(C)Oc1cccc(N2CCC(n3ccc(C(C)C)n3)C2=O)c1 (stereo not drawn) [Compound 82]
- Plant response rating, Nightshade ([1]; Rate 62 g/ha): 0
- Plant response rating, Nightshade ([1]; Rate 125 g/ha): 10
- Plant response rating, Nightshade ([1]; Rate 250 g/ha): 30
- Plant response rating, Sunflower [2]: 20
- Plant response rating, Surinam grass ([3]; Rate 62 g/ha): 10
- Plant response rating, Surinam grass ([3]; Rate 125 g/ha): 80
- Plant response rating (0 to 100), Surinam grass ([3]; Rate 250 g/ha): 70
- Plant response rating (0 to 100), Surinam grass ([3]; Rate 500 g/ha): 100
- Plant response rating, Bermudagrass ([4]; Rate 62 g/ha): 100
- Plant response rating, Bermudagrass ([4]; Rate 125 g/ha): 90
- Plant response rating (0 to 100 where 0 is no effect and 100 is complete control), Bermudagrass ([4]; Rate 250 g/ha): 100
- Plant response rating (0 to 100 where 0 is no effect and 100 is complete control), Bermudagrass ([4]; Rate 500 g/ha): 100
- Plant response rating, Cocklebur ([5]; Rate 62 g/ha): 0
- Plant response rating, Cocklebur ([5]; Rate 125 g/ha): 10
- Plant response rating (0 to 100), Cocklebur ([5]; Rate 250 g/ha): 20
- Plant response rating (0 to 100), Cocklebur ([5]; Rate 500 g/ha): 40
- Plant response rating, Ragweed, Common ([6]; Rate 125 g/ha): 0
- Plant response rating (0 to 100), Ragweed, Common [6, 21]: 100
- Plant response rating, Ragweed, Common ([6]; preemergence, Rate 250 g/ha): 50
- Plant response rating, Corn ([7]; Rate 62 g/ha): 0
- Plant response rating, Corn ([7]; Rate 125 g/ha): 20
- Plant response rating (0 to 100), Corn ([7]; Rate 250 g/ha): 10
- Plant response rating (0 to 100), Corn ([7]; Rate 500 g/ha): 30
- Plant response rating, Crabgrass ([8]; Rate 62 g/ha): 100
- Plant response rating, Crabgrass ([8]; Rate 125 g/ha): 100
- Plant response rating (0 to 100), Crabgrass ([8]; Rate 250 g/ha): 100
- Plant response rating (0 to 100), Crabgrass ([8]; Rate 500 g/ha): 100
- Plant response rating, Foxtail, Giant ([9]; Rate 62 g/ha): 30
- Plant response rating, Foxtail, Giant ([9]; Rate 125 g/ha): 0
- Plant response rating (0 to 100), Foxtail, Giant ([9]; Rate 250 g/ha): 100
- Plant response rating (0 to 100), Foxtail, Giant ([9]; Rate 500 g/ha): 100
- Plant response rating, Goosegrass ([10]; Rate 62 g/ha): 90
- Plant response rating, Goosegrass ([10]; Rate 125 g/ha): 100
- Plant response rating (0 to 100), Goosegrass ([10]; Rate 250 g/ha): 100
- Plant response rating (0 to 100), Goosegrass ([10]; Rate 500 g/ha): 100
- Plant response rating, Johnsongrass ([11]; Rate 62 g/ha): 40
- Plant response rating, Johnsongrass ([11]; Rate 125 g/ha): 50
- Plant response rating (0 to 100), Johnsongrass ([11]; Rate 250 g/ha): 50
- Plant response rating (0 to 100), Johnsongrass ([11]; Rate 500 g/ha): 60
- Plant response rating, Kochia ([12]; Rate 62 g/ha): 0
- Plant response rating, Kochia ([12]; Rate 125 g/ha): 90
- Plant response rating (0 to 100), Kochia ([12]; Rate 250 g/ha): 100
- Plant response rating (0 to 100), Kochia ([12]; Rate 500 g/ha): 100
- Plant response rating, Lambsquarters ([13]; Rate 62 g/ha): 100
- Plant response rating, Lambsquarters ([13]; Rate 125 g/ha): 100
- Plant response rating (0 to 100), Lambsquarters [13, 21]: 100
- Plant response rating, Lambsquarters ([13]; preemergence, Rate 250 g/ha): 100
- Plant response rating, Morningglory ([14]; Rate 62 g/ha): 20
- Plant response rating, Morningglory ([14]; Rate 125 g/ha): 10
- Plant response rating (0 to 100), Morningglory [14, 21]: 80
- Plant response rating, Morningglory ([14]; preemergence, Rate 250 g/ha): 20
- Plant response rating, Pigweed ([15]; Rate 125 g/ha): 70
- Plant response rating (0 to 100), Pigweed [15, 21]: 0
- Plant response rating, Pigweed ([15]; preemergence, Rate 250 g/ha): 100
- Plant response rating, Soybean ([16]; Rate 125 g/ha): 10
- Plant response rating (0 to 100), Soybean [16, 21]: 60
- Plant response rating, Soybean ([16]; preemergence, Rate 250 g/ha): 30
- Plant response rating, Velvetleaf ([17]; Rate 125 g/ha): 10
- Plant response rating (0 to 100), Velvetleaf [17, 21]: 30
- Plant response rating, Velvetleaf ([17]; preemergence, Rate 250 g/ha): 10
- Plant response rating, Cupgrass, Woolly ([18]; Rate 62 g/ha): 70
- Plant response rating, Cupgrass, Woolly ([18]; Rate 125 g/ha): 90
- Plant response rating (0 to 100), Cupgrass, Woolly ([18]; Rate 250 g/ha): 90
- Plant response rating (0 to 100), Cupgrass, Woolly ([18]; Rate 500 g/ha): 100
- Plant response rating, Nutsedge ([19]; Rate 62 g/ha): 0
- Plant response rating, Nutsedge ([19]; Rate 125 g/ha): 0
- Plant response rating (0 to 100), Nutsedge [19, 21]: 40
- Plant response rating, Nutsedge ([19]; preemergence, Rate 250 g/ha): 10
- Plant response rating (0 to 100), Nightshade [20]: 100
